# Measured values published in patent US9447083B2, “N-acylhydrazone derivatives for selective T cell inhibitor and anti-lymphoid malignancy drug” (CHONG KUN DANG PHARMACEUTICAL CORP., priority 2012, dated 2016).
# Where “and” joins values, the source holds several entries; their conditions need not be identical. Equal values may be shown once.
# What was measured:
# [1] = tested on: acute graft-versus-host disease; experiment: Acute graft-versus-host disease, mouse model of allogeneic bone marrow transplantation; assay type: in vivo; conditions: 25 mg/kg intraperitoneally daily for 10 days
# Source text: Lymph nodes, spleens, both femurs and tibias were aseptically collected from normal C57BL/6 mice (8-12 week old, female, 20-23 g), and T cells were isolated from the lymph nodes and spleens in the same manner as described in Experimental Example 2 and were re-suspended in PBS at a concentration of 8×10^7 cells/mL. The femurs and tibias were cut at the ends, and the bone marrow was flushed from femurs and tibias with RPMI medium using a syringe (21G for femur and 26G for tibia) to extract the marrow, which was then suspended and passed through a cell strainer to make a single cell suspension. The bone marrow cell suspension was centrifuged at 1200 rpm for 5 minutes, and the supernatant was removed, then the cells were added to 1 mL of ACK lysis buffer and vortexed for 1 minute, followed by washing with RPMI medium. […] The incubated cell suspension was added with 5 mL of MACS buffer, centrifuged for 5 minutes, washed, and then re-suspended in 2 mL of MACS buffer. The suspended cells were placed in the autoMACS Pro Separator, and T cells bound to the CD90.2 microbeads were removed. The separated T cell-depleted bone marrow cells (TCD-BM) were washed with PBS and re-suspended in PBS at a concentration of 1×10^8 cells/mL. Normal BDF1 mice (10-12 week old, female, 20-23 g) were irradiated with 850 rad of γ radiation using an irradiator, and then 100 μL of a graft obtained by mixing the C57BL/6 mouse T cells and the TCD-BM at a ratio of 1:1 was injected into the tail vein of the BDF1 mice. In a group treated with compound 229 of the present invention, compound 229 was completely dissolved in a Cremophor EL-ethanol mixture (1:1, v/v) in an amount corresponding to 15% (v/v) of the administration volume, after which the compound solution was diluted in PBS, and the dilution was administered intraperitoneally to each mouse at a dose of 25 mg/kg daily for 10 days from the day of the graft injection. Meanwhile, Tacrolimus that is a currently clinically used immunosuppressive agent was administered to mice of another group in the same amount as compound 229 in order to compare the inhibitory effect on acute graft-versus-host disease, and mice of a vehicle control group were administered with 200 μL of a Cremophor EL-ethanol-PBS (7.5:7.5:85, v/v/v) in the same manner as the treated groups. Then, the survival of mice was monitored daily, and the severity of GVHD was assessed twice a week with clinical GVHD scoring system for each a decrease in weight loss, hunched posture, decreased activity, fur ruffling and skin lesions. Each parameters were scored on a 3-point (0 to 2) scale.
# KMS26 = experiment: Apoptosis of lymphoid malignancy cell lines: KMS26; assay type: cell-based; conditions: KMS-26; KMS26, Multiple myeloma, 24 hours; read-out: Administration Dose (mean ± SD, μmol/L) Lethal Dose 50 (Apoptosis)
# Experimental: Each of the acute T cell leukemia cell lines Jurkat, Molt4 and CCRF-CEM, the acute B cell leukemia cell line Raji and the […] cell lines KMS11, KMS12BM, KMS26, KMS28BM, and IM9 was re-suspended in 10% FBS-containing RPMI medium at a concentration of 1.5×10^5 cells/mL, and 200 μL of each of the cell suspensions was cultured in a flat bottom 96-well plate (Costar). The acute NK cell lymphoma cell line NK-92MI was re-suspended in α-MEM medium (supplemented with 20% FBS, 1×MEM vitamine solution, 50 μM 2-mercaptoethanol and 1× penicillin/streptomycin) at a concentration of 1.5×10^5 cells/mL, and 200 μL of the cell suspension was cultured in a flat bottom 96-well plate. The cells in each well was treated with 10 μL of each of 0.1, 0.25, 0.5, 0.75 and 1 μM of the compound diluted with RPMI medium, followed by that the cells were incubated in a 5% CO2 incubator at 37° C. for 24 hours. […]
# The cells were collected, and then the apoptosis thereof was analyzed by a flow cytometer after staining with Annexin V-7-AAD. The incubated cells were collected, placed in a 5-mL FACS tube (BD Falcon) and washed with 1 mL of fluorescence activated cell sorting (FACS) buffer (1%. FBS and 0.1% sodium azaide in PBS). […] The stained cells were suspended in 0.3 mL of FACS buffer, and then analyzed by a flow cytometer. […]
compound,measurement,setting,value
"Cc1cc(C)c(OCC(=O)N/N=C/c2ccc3cc[nH]c3c2)c(C2CCOC2)c1 (stereo not shown) [Compound 229, (E)-N′-((1H-indol-6-yl)methylene)-2-(2,4-dimethyl-6-(tetrahydrofuran-3-yl)phenoxy)acetohydrazide]",severity of GVHD (clinical scoring system),[1],slight symptoms of GVHD
same,survival rate,"[1]; final (day 70), vehicle 10%",80%
same,"mouse death, days after cell transplantation",[1]; vehicle from 29 days,35 days and 46 days
same,EC50,KMS26,1.31 ± 0.35 µmol/L
